Experimental findings from article PMC7919047, “Trichilianones A-D, Novel Cyclopropane-Type Limonoids from Trichilia adolfi” (Molecules, 2021) are described below.

Converted amounts (≈) assume the structure as drawn. Where two headings read alike, the source gives them in different places.

Data set [1] relates to L. braziliensis promastigotes. Kind of data set: In vitro leishmanicidal activity against promastigotes (optical density, 72 h). Format: cell-based. As to conditions: Leishmania braziliensis, read-out: Leishmanicidal activity L.b, IC50. The procedure: (§1) Leishmanicidal activity was assayed according to Williams, with some modification. Promastigotes of Leishmania: L. amazonensis, Clone 1, NHOM-BR-76-LTB-012 (Lma, donated by the Paul Sabatier Université, France) and L. braziliensis M2904 C192 RJA (M2904, donated by Dr. Jorge Arévalo from Universidad Peruana Cayetano Heredia, Peru). The strains were cultured in Schneider’s insect medium (pH 6.2), supplemented with 10% FBS and incubated in 96-microwell plates at 26 °C. Briefly, promastigotes in logarithmic phase of growth, at concentration of 106 parasites/mL, were exposed to samples dissolved in DMSO (1%) at different concentrations (3.1–100 μg/mL). Miltefosine (3.1–100 μg/mL, IDPS, France) was used as control drug. The microwell plates were incubated for 72 h at 26 °C, the optical density of each well was measured and the IC50 values calculated. All assays were performed in triplicate.

Data set [2] deals with Leishmania amazonensis promastigotes. The data set is described as above. Format: cell-based. As to conditions: read-out: Leishmanicidal activity L.a., IC50. The procedure: as §1
A short description of data set [3]: Cytotoxicity in Raw 264.7 murine macrophage cell cultures (resazurin, 72 h). Type of data set: cell-based. Particulars: mouse, Raw 264.7 murine macrophages, 72 h at 37 °C, 6.2–200 μg/mL, triplicate. The procedure: The Raw 264.7 murine macrophage cell line was purchased from the American-Type Culture Collection (ATCC-TIB71). The cells were maintained in DMEM-HG medium supplemented with 10% fetal bovine serum, 100 U/mL of penicillin and 100 μg/mL of streptomycin, and sodium bicarbonate (2.2 g/L) in humidified atmosphere at 37 °C with 5% CO2. Samples were prepared as described above and added (in 100 μL DMSO) at different concentrations (6.2–200 μg/mL). Medium blank, control drugs and cell growth controls were included to evaluate cell viability. The plates were incubated for 72 h at 37 °C with 5% CO2. After incubation for the indicated time, the cells were washed, after which 10 μL of Resazurin reagent (2.0 mM) was added. They were further incubated at 37 °C for 3 h in a humidified incubator. The IC50 values were assessed using a fluorometric reader (540 nm excitation, 590 nm emission) and Gen5 software. All assays were performed in triplicate.
Background: Alamar Blue is a resazurin reagent that responds to reducing activity.

With `COC(=O)CC1C(C)(C)OC(=O)C=C2OC3(C)C45C(=O)CC(c6ccoc6)C4(C)C(OC(C)=O)C(O)C35C21C` (stereo not shown) [Compound 1, Trichilianone A], the melting point (usually the temperature of the solid-liquid transition) came out at 181 °C. Also, the IC50 – broadly, the concentration that gives 50% inhibition – in data set [1] (72 h) was over 100 µg/mL. The IC50 in data set [2] (72 h) was over 100 µg/mL. In data set [3], this molecule gave an IC50 at 72 h of 64 ± 23 µg/mL (≈ 118 µM).

`COC(=O)CC1C(C)(C)OC(=O)CC2OC3(C)C45C(=O)CC(c6ccoc6)C4(C)C(OC(C)=O)C(O)C35C21C` (stereo not shown) [Compound 2, Trichilianone B]: the melting point was determined as 145 °C. Besides, in data set [1] (72 h), the IC50 is over 100 µg/mL. Moreover, the IC50 in data set [2] (72 h) is over 100 µg/mL. The midpoint of inhibition in data set [3] (Raw 264.7 macrophage cells), the IC50 at 72 h, lay at 75 ± 18 µg/mL (≈ 138 µM).

`COC(=O)CC1C(C)(C)OC(=O)CC2OC3(C)C45C(=O)CC(c6ccoc6)C4(C)C(OC(C)=O)C(OC(=O)C(C)C)C35C21C` (stereo not shown) [Compound 3, Trichilianone C]: the melting point turned out to be 151 °C. Besides, in data set [1] (72 h), the IC50 was over 100 µg/mL. In data set [2] (72 h), the IC50 was over 100 µg/mL. In data set [3] (Raw 264.7 macrophage cells), this molecule had an IC50 at 72 h of 70 ± 27 µg/mL (≈ 114 µM).

`COC(=O)CC1C(C)(C)OC(=O)C=C2OC3(C)C45C(=O)CC(C6=CCOC6=O)C4(C)C(OC(C)=O)C(O)C35C21C` (stereo not shown) [Compound 4, Trichilianone D]: the melting point was 175 °C. The IC50 in data set [1] (72 h) is over 100 µg/mL. In addition, the IC50 in data set [2] (72 h) was over 100 µg/mL. Besides, 76 ± 23 µg/mL (≈ 136 µM) corresponded to half-maximal inhibition in data set [3] (IC50 at 72 h).

With `CCCCCCCCCCCCCCCCOP(=O)([O-])OCC[N+](C)(C)C` [Miltefosine, reference compound], the IC50 in data set [1] (L. braziliensis M2904 C192 RJA promastigotes, 72 h at 26 °C, 3.1–100 μg/mL, triplicate) turned out to be 4.1 ± 0.5 µg/mL (≈ 10.1 µM); in data set [2] (L. amazonensis Clone 1 NHOM-BR-76-LTB-012 promastigotes, 72 h at 26 °C, 3.1–100 μg/mL, triplicate), 5 ± 0.2 µg/mL (≈ 12.3 µM). This molecule also gave an IC50 at 72 h in data set [3] (Raw 264.7 macrophage cells) of 21 ± 2 µg/mL (≈ 51.5 µM).
